Source: patent publication US20260069725A1, “LIGAND COMPOUND TARGETING PSMA ANTIGEN, AND CHELATE AND USE THEREOF IN DIAGNOSIS AND TREATMENT OF PROSTATE CANCER” (Chengdu StarRay Therapeutics Co., Ltd, priority 2021, published 2026)

Experiments:
LNCaP tumor bearing mice [1] = test: Inhibition on tumor; type: in vivo; conditions: 14.8 MBq (400 μCi)
Experimental: PSMA positive LNCaP cells were proliferated and harvested, and then inoculated subcutaneously in mice at an amount of 1×10^7/mouse. When the tumors grew to 200-400 mm^3, the mice were randomly grouped according to the tumor size (3-4 mice in each group), and were given the compound (400 μCi) of the present invention labeled with […] or the positive control compound PSMA-617 labeled with ^177Lu via tail vein injection, respectively. The tumor sizes and body weights of the mice were measured every 3 days after administration, and the death of the mice was recorded. The control group and the administration group were compared to understand the inhibition on LNCaP tumors by different drugs. On day 6 after administration, SPECT/CT scanning was performed on the administration group to understand the exposure of different drugs at the tumor sites during the treatment.

LNCaP tumor bearing mice [2] = test: SPECT/CT scanning, exposure of 177Lu labeled compounds in tumor and tissues; type: in vivo; conditions: for Exposure in Bladder / Exposure in Bone / Exposure in Heart / Exposure in Kidney / Exposure in Liver / Exposure in Lung / Exposure in Muscle / Exposure in Spleen / Exposure in Tumor: labeled with 177Lu, about 7.4 MBq (200 μCi) tail vein, scans 1-72 h
Experimental: The ^177Lu labeled precursor compound was diluted to 7.4 MBq (200 μCi)/200 […] with normal saline, and each tumor bearing mouse was given about 7.4 MBq (200 μCi) of the drug via tail vein injection. SPECT/CT scanning was performed on the mice at 1, 4, 8, 24, 48 and 72 h after administration, respectively, with the mice under continuous anesthesia with isoflurane, lying prone on an examination bed. The acquisition method was static imaging 12 min SPECT, and medium resolution whole-body imaging CT. During the process, according to the recording table, the animal body weight, injection dose, injection time and residual dose were recorded, and the time of measuring the injection dose and the time of measuring the residual dose were recorded respectively. After scanning, the data were reconstructed, PMOD software was used to analyze and delineate each organ tissue and quantify the drug distribution therein, the images and data were saved, and the data were further subjected to statistical analysis.
Drug exposure in each tissue was calculated (Table 1, where the values involving PSMA-D were the predicted values).

Compound | body weight of the animals during the treatment (LNCaP tumor bearing mice [1]) | Exposure in Bladder (LNCaP tumor bearing mice [2]) | Exposure in Bone (LNCaP tumor bearing mice [2]) | Exposure in Heart (LNCaP tumor bearing mice [2]) | Exposure in Kidney (LNCaP tumor bearing mice [2]) | Exposure in Liver (LNCaP tumor bearing mice [2]) | Exposure in Lung (LNCaP tumor bearing mice [2]) | Exposure in Muscle (LNCaP tumor bearing mice [2]) | Exposure in Spleen (LNCaP tumor bearing mice [2]) | Exposure in Tumor (LNCaP tumor bearing mice [2]) | drug exposure in the LNCaP tumor, in words (LNCaP tumor bearing mice [2]; in contrast to PSMA-617) | exposure in the normal tissues, in words (LNCaP tumor bearing mice [2]; in contrast to PSMA-617)
O=C([O-])CN1CCN(CC(=O)[O-])CCN(CC(=O)NCC2CCC(C(=O)N[C@@H](Cc3ccc4ccccc4c3)C(=O)NCCCC[C@H](NC(=O)N[C@@H](CCC(=O)O)C(=O)O)C(=O)O)CC2)CCN(CC(=O)[O-])CC1.[177Lu+3] (stereo partly drawn) [^177Lu-PSMA-617] | no significant difference | – | – | – | – | – | – | – | – | – | – | –
COc1ccc(CCCC(=O)NC(Cc2c[nH]cn2)C(=O)N[C@@H](CCCCNC(=O)CN2CCN(CC(=O)O)CCN(CC(=O)O)CCN(CC(=O)O)CC2)C(=O)NCC2CCC(C(=O)N[C@@H](Cc3ccc4ccccc4c3)C(=O)NCCCC[C@H](NC(=O)N[C@@H](CCC(=O)O)C(=O)O)C(=O)O)CC2)cc1 (stereo partly drawn) [PSMA-B] | – | 157.3 h*ID %/g | 20.62 h*ID %/g | 54.22 h*ID %/g | 330.5 h*ID %/g | 53.28 h*ID %/g | 50.04 h*ID %/g | 32.14 h*ID %/g | 31.81 h*ID %/g | 370 h*ID %/g | – | –
O=C(O)CCCCCCCCCCCCCCC(=O)N[C@@H](CCCCNC(=O)CN1CCN(CC(=O)O)CCN(CC(=O)O)CCN(CC(=O)O)CC1)C(=O)NCC1CCC(C(=O)N[C@@H](Cc2ccc3ccccc3c2)C(=O)NCCCC[C@H](NC(=O)N[C@@H](CCC(=O)O)C(=O)O)C(=O)O)CC1 (stereo partly drawn) [PSMA-F] | – | 633.7 h*ID %/g | 94.85 h*ID %/g | 581.6 h*ID %/g | 669.2 h*ID %/g | 263.1 h*ID %/g | 348.3 h*ID %/g | 253.3 h*ID %/g | 55.76 h*ID %/g | 1394 h*ID %/g | – | –
COc1ccc(C(=O)NCCN2CCN(C(=O)CCC(=O)N[C@@H](CCCCNC(=O)CN3CCN(CC(=O)O)CCN(CC(=O)O)CCN(CC(=O)O)CC3)C(=O)N3CCc4cc(C(=O)N[C@@H](Cc5ccc6ccccc6c5)C(=O)NCCCC[C@H](NC(=O)N[C@@H](CCC(=O)O)C(=O)O)C(=O)O)ccc4C3)CC2)cc1 [PSMA-L] | – | 499.3 h*ID %/g | 15.5 h*ID %/g | 40.58 h*ID %/g | 148.8 h*ID %/g | 62.47 h*ID %/g | 51.83 h*ID %/g | 37.2 h*ID %/g | 34.43 h*ID %/g | 1350 h*ID %/g | greatly increase the drug exposure in the LNCaP tumor | kept at a lower level
